Measurements: paper PMC9229949 (Pharmaceutics, 2022)

Experiments:
[1] = tested on: β-hematin formation from Fe(III)PPIX (hematin); experiment: β-hematin inhibition activity, oxidizing conditions (O-BHIA, hematin); assay type: biochemical; settings: 18 h incubation; median ± S.E.M. of three experiments; free bases; read-out: β-Hematin Inhibitory Activity (BHIA) O-BHIA (Hematin), IC50
Protocol: (§1) A hemin chloride (10 μL of 4 mM stock in 80% DMSO) aliquot was dispensed in a U bottom 96-well microplate, and then, 10 μL of 0.1 M NaOH (O-BHIA) or 4 mM reduced glutathione in PBS at pH 7.0 (R-BHIA) was added, and plates were sealed and incubated at 37 °C for 2 h. After this, 10 μL of the drug dissolved in DMSO was added and incubated for 2 h, followed by the addition of 180 μL of sodium acetate buffer (1.0 M, pH 5.2) and 10 μL of nonionic detergent IGEPAL-CA-630 solution in methanol (10 mg/mL). Plates were sealed and incubated at 37 °C for 18 h. […] The reaction was stopped by the addition of 50 μL of a sodium dodecyl sulfate solution (5.0% v/v in 0.1 M bicarbonate buffer at pH 9.0). Plates were centrifuged at 3700 rpm for 5 min, and 100 μL of supernatant was placed in a separate plate. […] Two independent experiments were performed, and each drug concentration was tested in quadruplicate concentrations.

[2] = tested on: β-hematin formation; experiment: β-hematin formation inhibition by infrared spectroscopy; assay type: biochemical; set-up: key: Yes indicates β-hematin inhibition; No indicates β-hematin formation; settings: 3:1 ratio of drug:hematin, qualitative by infrared
Protocol: The conversion of hemin to β-hematin was determined by infrared (IR) spectroscopy as described by Egan et al.. […] Then, 0.3 mL of 0.1 M HCl and 1.7 mL of sodium acetate buffer ([…], pH 5) were added at the same temperature. […] The solid was dried and IR spectra were obtained using attenuated total reflection (ATR) using chloroquine as a positive control.

[3] = tested on: β-hematin formation from Fe(II)PPIX (heme); experiment: β-hematin inhibition activity, reducing conditions (R-BHIA, heme); assay type: biochemical; settings: 18 h incubation; median ± S.E.M. of three experiments; free bases; read-out: β-Hematin Inhibitory Activity (BHIA) R-BHIA (Heme), IC50
Protocol: as §1

[4] = Cytotoxicity against J774 cells (CellTiter-Glo); assay type: cell-based, murine; settings: mouse, J774 macrophage cells; J774 macrophages, 72 h, CellTiterGlo; at least two experiments; read-out: CC50 ± S.E.M.
Protocol: In vitro cytotoxicity was assayed against two mammalian cell lineages, J774 (murine macrophages) and HepG2 (human hepatocellular carcinoma). […] Cell cultures from 60 to 80% confluence were trypsinized, washed in complete medium, and 4 × 10^4 cells were plated in 100 µL per well with complete medium in 96-well flat-bottom white plates for 24 h at 37 °C prior to the addition of the compounds. Triplicate aliquots of compound and the reference drugs (stock solution in DMSO) covering 7 different concentrations at 2-fold dilutions were added to the wells, and plates were incubated for 72 h more. After incubation for 72 h at 37 °C, plates were maintained at room temperature, the culture medium was removed, and 100 µL volume of CellTiter-Glo reagent was added to each well. The bioluminescence was measured using a microplate reader Filtermax F5 Multi-Mode instrument (Molecular Devices) and Softmax software. […] The selectivity index (S.I.) was estimated using the IC50s from mammalian cells divided by the IC50 obtained against the asexual blood stage P. falciparum.

With CCN(CC)Cc1cc(Nc2ccnc3cc(Cl)ccc23)ccc1O [Amodiaquine (AQ), amodiaquine] the IC50 [1] was 140 ± 30 µM, the “β-Hematin Inhibitory Activity (BHIA) Determined by IR” value [2] was “Yes” and the IC50 [3] was 100 ± 10 µM. The CC50 at 72 h [4] was 23.8 µM.
